Source: article PMC7073140, “Hybridization with Insect Cecropin A (1–8) Improve the Stability and Selectivity of Naturally Occurring Peptides” (International Journal of Molecular Sciences, 2020)
In brackets after ≈: the same amount, converted by molar mass. Residues, ends and D or L forms follow the SMILES beside them.

Assays:
Assay type in all cases: cell-based
E. coli ATCC 25922 = conditions: ATCC 25922, 2 h
Protocol: (§1) Minimum inhibitory concentrations (MICs) were determined as previously described. […] The bacteria then adjusted to a cell density of 5×10^5 CFU mL^−1 in MHB. […] The mixtures were incubated at 37 °C for 18–24 h. The MICs were calculated as the lowest concentration of the peptide that prevented visible turbidity. The tests were performed in triplicate using three replicates for each experiment. Serum stability was determined according to the method previously described. Human serum was added in the peptide solution with the volume ratio of 1:1 in which the final concentration of 50% v/v of serum was yielded. Serum-peptide mixtures with the final concentration of 25% and 12.5% v/v serum were also prepared. Subsequently, the mixture was incubated at 37 °C for 2h. The antimicrobial activities of serum-preincubated peptides were determined according the MIC assay described above.

S. aureus ATCC 29213 = conditions: ATCC 29213, 2 h
Protocol: as §1

S. typhimurium ATCC14028 = tested on: S. typhimurium ATCC14028
Protocol: (§2) Minimum inhibitory concentrations (MICs) were determined as previously described. The bacteria used to determine the MIC were first cultured in Mueller-Hilton broth (MHB) (AoBoX, Beijing, China) overnight at 37 °C and transferred into a fresh and sterile MHB and grown to an OD600 of 0.4. The bacteria then adjusted to a cell density of 5×10^5 CFU mL^−1 in MHB. Peptides were serially diluted in 0.01% acetic acid and 0.2% bovine serum albumin (BSA) (Sigma-Aldrich, Shanghai, China) in a volume of 50 μL per well to achieve final concentration ranging from 1 to 128 μM in sterile 96-well plates. 50 μL of prepared bacterial suspension was added to each well. The mixtures were incubated at 37 °C for 18–24 h. The MICs were calculated as the lowest concentration of the peptide that prevented visible turbidity. The tests were performed in triplicate using three replicates for each experiment.

E. coli UB 1005 = tested on: E. coli UB 1005
Protocol: as §2

S. typhimurium C7731 = tested on: S. typhimurium C7731
Protocol: as §2

E. coli ATCC25922 = tested on: E. coli ATCC25922
Protocol: as §2

S. pullorum C7913 = tested on: S. pullorum C7913
Protocol: as §2

P. aeruginosa ATCC27853 = tested on: P. aeruginosa ATCC27853
Protocol: as §2

S. aureus ATCC29213 = tested on: S. aureus ATCC29213
Protocol: as §2

S. faecalis ATCC29212 = tested on: S. faecalis ATCC29212
Protocol: as §2

S. epidermidis ATCC12228 = tested on: S. epidermidis ATCC12228
Protocol: as §2

human erythrocytes = assay: Hemolytic activity; conditions: for HC10, concentration that induced 10% hemolysis of human red blood cells: probit regression in SPSS, unit not given (peptides tested at 0.5–256 µM)
Protocol: Hemolytic activities of the peptides were determined according to the method described previously. Fresh heparinized human whole blood from healthy donor (Yang Yang, Harbin, China) was centrifuged at 1000 g for 5 min at 4 °C. The obtained erythrocytes were washed three times and resuspended in PBS. Then, 50 μL of erythrocyte solution was incubated with 50 μL peptides at different concentrations at 37 °C for 1 h. Erythrocytes in either PBS or 0.1% Triton X-100 (Sigma-Aldrich, Shanghai, China) were used as negative and positive controls, respectively. After centrifugation at 1000 g for 5 min at 4 °C, the supernatant was transferred into a new 96-well plate and the extent of hemolysis was monitored using a multimode microplate reader (Infinite M200 Pro, Tecan, Switzerland) at 576 nm. The percentage of hemolysis was calculated according to the following formula:hemolysis (%) = [(A-A0)/(At-A0)]×100(2) where A is the absorbance of the peptide sample, A0 and At represent 0% and 100% hemolysis determined in 10 mM PBS and 0.1% Triton X-100, respectively. Results were expressed as average values from three independent experiments and each experiment was performed in triplicate.
For statistical evaluation, data were analyzed using the Statistical Product and Service Solutions software (SPSS Inc., Chicago, IL, USA) by one-way ANOVA and the values were presented as mean ± standard error (SE). HC10 values were calculated by using probit regression in SPSS 19.

[1] = tested on: Gram-positive and Gram-negative bacteria; assay: MIC over all tested bacterial strains (range, geometric mean); conditions: for GM, geometric mean of the MIC values: all tested strains, 256 μM used where no activity at 128 μM
Protocol: as §2
It is calculated as HC10/GM.

CC[C@H](C)[C@H](NC(=O)[C@H](CCCCN)NC(=O)[C@H](CCCCN)NC(=O)[C@H](Cc1ccccc1)NC(=O)[C@H](CC(C)C)NC(=O)[C@H](CCCCN)NC(=O)[C@H](Cc1c[nH]c2ccccc12)NC(=O)[C@@H](N)CCCCN)C(=O)N[C@@H](CCCNC(=N)N)C(=O)N[C@@H](Cc1ccccc1)C(=O)NCC(=O)N[C@@H](CCCNC(=N)N)C(=O)N[C@@H](Cc1ccccc1)C(=O)N[C@@H](CC(C)C)C(=O)N[C@@H](CCCNC(=N)N)C(=O)N[C@@H](CCCCN)C(=O)N[C@H](C(=O)N[C@@H](CCCNC(=N)N)C(=O)N[C@@H](CCCNC(=N)N)C(=O)N[C@@H](Cc1ccccc1)C(=O)N[C@@H](CCCNC(=N)N)C(=O)N1CCC[C@H]1C(=O)N[C@@H](CCCCN)C(N)=O)[C@@H](C)CC [CA-FO] (H-KWKLFKKIRFGRFLRKIRRFRPK-NH2)
MIC after incubating with human serum (E. coli ATCC 25922): 4 µM | MIC after incubating with human serum (S. aureus ATCC 29213): 4 µM | MIC (S. typhimurium ATCC14028): 4 µM (≈ 12.4 µg/mL) | MIC (E. coli UB 1005): 2 µM (≈ 6.21 µg/mL) | MIC (S. typhimurium C7731): 4 µM (≈ 12.4 µg/mL) | MIC (E. coli ATCC25922): 2 µM (≈ 6.21 µg/mL) | MIC (S. pullorum C7913): 8 µM (≈ 24.8 µg/mL) | MIC (P. aeruginosa ATCC27853): 4 µM (≈ 12.4 µg/mL) | MIC (S. aureus ATCC29213): 2 µM (≈ 6.21 µg/mL) | MIC (S. faecalis ATCC29212): 4 µM (≈ 12.4 µg/mL) | MIC (S. epidermidis ATCC12228): 4 µM (≈ 12.4 µg/mL) | hemolytic activity (human erythrocytes; 256 μM peptide, 37 °C, 1 h, absorbance 576 nm, average of three independent experiments): 13.83% | HC10, concentration that induced 10% hemolysis of human red blood cells (human erythrocytes; 37 °C, 1 h): 143.34 | fold decrease of hemolysis compared to CA (human erythrocytes; at 256 μM): approximately 5 fold | MICs range against all tested bacterial strains ([1]; all nine tested Gram-negative and Gram-positive strains): 2 to 8 µM | GM, geometric mean of the MIC values [1]: 3.43 µM

CC[C@H](C)[C@H](NC(=O)[C@H](CCCCN)NC(=O)[C@H](CCCCN)NC(=O)[C@H](Cc1ccccc1)NC(=O)[C@H](CC(C)C)NC(=O)[C@H](CCCCN)NC(=O)[C@H](Cc1c[nH]c2ccccc12)NC(=O)[C@@H](N)CCCCN)C(=O)N[C@@H](Cc1c[nH]c2ccccc12)C(=O)N[C@@H](Cc1c[nH]c2ccccc12)C(=O)N1CCC[C@H]1C(=O)N[C@@H](Cc1ccccc1)C(=O)N[C@@H](CC(C)C)C(=O)N[C@@H](CCCNC(=N)N)C(=O)N[C@@H](CCCNC(=N)N)C(N)=O [CA-TP] (H-KWKLFKKIWWPFLRR-NH2)
MIC after incubating with human serum (E. coli ATCC 25922): 4 µM | MIC after incubating with human serum (S. aureus ATCC 29213): 4 µM | MIC (S. typhimurium ATCC14028): 4 µM (≈ 8.53 µg/mL) | MIC (E. coli UB 1005): 4 µM (≈ 8.53 µg/mL) | MIC (S. typhimurium C7731): 2 µM (≈ 4.26 µg/mL) | MIC (E. coli ATCC25922): 2 µM (≈ 4.26 µg/mL) | MIC (S. pullorum C7913): 4 µM (≈ 8.53 µg/mL) | MIC (P. aeruginosa ATCC27853): 4 µM (≈ 8.53 µg/mL) | MIC (S. aureus ATCC29213): 2 µM (≈ 4.26 µg/mL) | MIC (S. faecalis ATCC29212): 2 µM (≈ 4.26 µg/mL) | MIC (S. epidermidis ATCC12228): 2 µM (≈ 4.26 µg/mL) | HC10, concentration that induced 10% hemolysis of human red blood cells (human erythrocytes; 37 °C, 1 h): 49.66 | GM, geometric mean of the MIC values [1]: 2.72 µM

CC[C@H](C)[C@H](NC(=O)[C@H](CCCCN)NC(=O)[C@H](CCCCN)NC(=O)[C@H](Cc1ccccc1)NC(=O)[C@H](CC(C)C)NC(=O)[C@H](CCCCN)NC(=O)[C@H](Cc1c[nH]c2ccccc12)NC(=O)[C@@H](N)CCCCN)C(N)=O [CA] (H-KWKLFKKI-NH2)
MIC (S. typhimurium ATCC14028): >128 µM | MIC (E. coli UB 1005): >128 µM | MIC (S. typhimurium C7731): >128 µM | MIC (E. coli ATCC25922): 64 µM (≈ 69.7 µg/mL) | MIC (S. pullorum C7913): >128 µM | MIC (P. aeruginosa ATCC27853): >128 µM | MIC (S. aureus ATCC29213): 128 µM (≈ 139 µg/mL) | MIC (S. faecalis ATCC29212): >128 µM | MIC (S. epidermidis ATCC12228): >128 µM | HC10, concentration that induced 10% hemolysis of human red blood cells (human erythrocytes; 37 °C, 1 h): 15.54 | GM, geometric mean of the MIC values [1]: 203.19 µM

CC[C@H](C)[C@H](NC(=O)[C@H](CCCCN)NC(=O)[C@H](CCCNC(=N)N)NC(=O)[C@H](CC(C)C)NC(=O)[C@H](Cc1ccccc1)NC(=O)[C@H](CCCNC(=N)N)NC(=O)CNC(=O)[C@H](Cc1ccccc1)NC(=O)[C@@H](N)CCCNC(=N)N)C(=O)N[C@@H](CCCNC(=N)N)C(=O)N[C@@H](CCCNC(=N)N)C(=O)N[C@@H](Cc1ccccc1)C(=O)N[C@@H](CCCNC(=N)N)C(=O)N1CCC[C@H]1C(=O)N[C@@H](CCCCN)C(N)=O [FO] (H-RFGRFLRKIRRFRPK-NH2)
MIC (S. typhimurium ATCC14028): 32 µM (≈ 65 µg/mL) | MIC (E. coli UB 1005): 16 µM (≈ 32.5 µg/mL) | MIC (S. typhimurium C7731): 32 µM (≈ 65 µg/mL) | MIC (E. coli ATCC25922): 32 µM (≈ 65 µg/mL) | MIC (S. pullorum C7913): 16 µM (≈ 32.5 µg/mL) | MIC (P. aeruginosa ATCC27853): 32 µM (≈ 65 µg/mL) | MIC (S. aureus ATCC29213): 64 µM (≈ 130 µg/mL) | MIC (S. faecalis ATCC29212): 16 µM (≈ 32.5 µg/mL) | MIC (S. epidermidis ATCC12228): 16 µM (≈ 32.5 µg/mL) | HC10, concentration that induced 10% hemolysis of human red blood cells (human erythrocytes; 37 °C, 1 h): 2.78 | GM, geometric mean of the MIC values [1]: 25.40 µM

CC(C)C[C@H](NC(=O)[C@H](Cc1ccccc1)NC(=O)[C@@H]1CCCN1C(=O)[C@H](Cc1c[nH]c2ccccc12)NC(=O)[C@@H](N)Cc1c[nH]c2ccccc12)C(=O)N[C@@H](CCCNC(=N)N)C(=O)N[C@@H](CCCNC(=N)N)C(N)=O [TP] (H-WWPFLRR-NH2)
MIC (S. typhimurium ATCC14028): 32 µM (≈ 33.9 µg/mL) | MIC (E. coli UB 1005): 128 µM (≈ 136 µg/mL) | MIC (S. typhimurium C7731): 64 µM (≈ 67.8 µg/mL) | MIC (E. coli ATCC25922): 128 µM (≈ 136 µg/mL) | MIC (S. pullorum C7913): 64 µM (≈ 67.8 µg/mL) | MIC (P. aeruginosa ATCC27853): 64 µM (≈ 67.8 µg/mL) | MIC (S. aureus ATCC29213): 64 µM (≈ 67.8 µg/mL) | MIC (S. faecalis ATCC29212): >128 µM | MIC (S. epidermidis ATCC12228): 32 µM (≈ 33.9 µg/mL) | HC10, concentration that induced 10% hemolysis of human red blood cells (human erythrocytes; 37 °C, 1 h): 25.06 | GM, geometric mean of the MIC values [1]: 74.66 µM
